Data as given in article PMC9400670, “Establishing the selective phospholipid membrane coordination, permeation and lysis properties for a series of ‘druggable’ supramolecular self-associating antimicrobial amphiphiles” (Chemical Science, 2022).
Read-outs that look alike come from different tables or passages of the source.

Tests used:
[1] = tested on: PE-PG mix lipid vesicles; experiment: Synthetic phospholipid vesicle membrane binding assay (fluorescence polarisation), PE-PG mix vesicles; conditions: lipid vesicles added to SSA (0.15 mM); n = 3; error = standard error; SSA alone set to 100 mP
Protocol: (§1) For intrinsically fluorescent SSAs 5, 6 and 8–12, FP titration experiments enabled the observation of SSA: phospholipid vesicle interactions. Here, an increase in FP value indicates an increase in the apparent size of the SSA as it interacts with the phospholipid vesicle. […]
(§2) Fluorescence polarisation: Lipid films were resuspended in Buffer (150 mM KCl, 10 mM HEPES, pH 7.4, 2 mM EGTA) and subjected to 9 freeze-thaw cycles in liquid nitrogen and extruded 20 times through a 200 nm polycarbonate membrane. Black bottom 96-well plates were prepared by serially diluting desired vesicle solution across the plate, the appropriate SSA solution (100 µL, 0.15 mM) was added to each well to give a total well volume of 200 µL. Fluorescent SSA solutions were set to a FP value of 100 mP. Data were acquired in endpoint mode. […]

[2] = tested on: PG lipid vesicles; experiment: Synthetic phospholipid vesicle membrane binding assay (fluorescence polarisation), PG vesicles; conditions: lipid vesicles added to SSA (0.15 mM); n = 3; error = standard error; SSA alone set to 100 mP
Protocol: as §1, §2

[3] = tested on: PC lipid vesicles; experiment: Synthetic phospholipid vesicle membrane binding assay (fluorescence polarisation), PC vesicles; conditions: lipid vesicles added to SSA (0.15 mM); n = 3; error = standard error; SSA alone set to 100 mP
Protocol: as §1, §2

[4] = Caco-2 permeability assay; type: in vitro ADME, human; conditions: human; for recovery at 120 min, 10 µM: Caco-2, % SSA recovered from the assay after 2 hours; for Papp B→A at 120 min, 10 µM: Caco-2, Caco-2
Protocol: Section 4: DMPK Methods and Further Discussion […]
Caco-2 Permeability studies: The permeability assay for SSA 1-6 and 10 was performed at Cyprotex Discovery Limited (Macclesfield, UK) and analysed at Cancer Research Horizons. SSA 1-6 and 10 were incubated at a final concentration of 10 uM with human intestinal Caco-2 cells at 37°C, 5% CO2 with a relative humidity of 95%. After 120 minutes the apical compartment inserts and the companion plates were separated, and the apical and basolateral samples were transferred. Incubations were conducted in duplicate and the fluorescent membrane integrity marker; Lucifer Yellow was co-incubated with the SSA compounds at the start of the assay. Compounds of known permeability were used as controls and were within acceptance criteria. Further processing is described in:
Sample preparation and liquid chromatography-mass spectrometry analysis.
Sample preparation and liquid chromatography-mass spectrometry analysis: All samples were centrifuged at 3500 rpm at 4°C for 10 min to precipitate protein and enable sampling of supernatant prior to appropriate dilution for liquid chromatography-mass spectrometry (LC-MS/MS analysis). […]
(1.5 µm, 50 x 2.1 mm) at a temperature of 40°C and a binary mobile phase gradient at a flow rate of […]
0.4 mL/min. […]
For the purpose of apparent permeability determination, samples were analysed using a Waters I-Class ultra-high-performance liquid chromatography (UHPLC) system coupled to a Waters Vion mass spectrometer (Waters, Elstree, UK). Separation of analytes was achieved used an Accucore Vanquish C18+ column (1.5 µm, 50 x 2.1 mm) at a temperature of 40°C and a binary mobile phase gradient at a flow rate of 0.4 mL/min. Initial LC conditions for SSA 1-4 comprised 66% solvent A (0.1% formic acid + 5 mM ammonium acetate in water), 33% solvent B (0.1% formic acid + 5 mM ammonium acetate in methanol); this was ramped to 63% B at 1.8 min and 95% B at 1.9 min, held for 0.5 min and then immediately returned to initial conditions and held for the remaining 0.5 min of the method. Initial LC conditions for SSA 5-10 comprised 54% solvent A (0.1% formic acid + 5 mM ammonium acetate in water), 46% solvent B (0.1% formic acid + 5 mM ammonium acetate in methanol); this was ramped to 67% B at 1.8 min and 95% B at 1.9 min, held for 0.5 min and then immediately returned to initial conditions and held for the remaining 0.5 min of the method.
Sample analysis was by electrospray ionisation in negative ion mode. The capillary voltage was 2.5 kV, desolvation gas was 600°C.
For the purpose of PK determination of SSA 5, samples were analysed using a Waters I-Class ultra-high-performance liquid chromatography (UHPLC) system coupled to a Waters Xevo TQ-XS mass spectrometer. Separation of analytes was achieved using an Accucore Vanquish C18+ column (1.5 µm, 50 x 2.1 mm) at a temperature of 40°C and a binary mobile phase gradient at a flow rate of 0.4 mL/min. Initial LC conditions comprised 54% solvent A (0.1% formic acid + 5 mM ammonium acetate in water), 46% solvent B (0.1% formic acid + 5 mM ammonium acetate in methanol); this was ramped to 67% B at 1.8 min and 95% B at 1.9 min, held for 0.5 min and then immediately returned to initial conditions and held for the remaining 0.5 min of the method. Sample analysis was by electrospray ionisation combined with multiple reaction monitoring in negative ion mode. The […]
Mean blood concentration-time profile: Within these studies SSAs 3 and 5 were dosed at 1 mg/kg, to female CD-1 mice (n=9 per SSA) via an intravenous tail vein bolus dose formulation as solutions in 2 % DMSO/98 % water. Blood taken from the mouse tail vein was extracted by protein precipitation.
SSA concentrations were calculated through UPLC-MS/MS techniques, with tolbutamide as the internal standard. The assay met the acceptance criteria with >7 calibration standards within ± 20% of nominal concentration. The lower limit of quantitation was 2 ng/mL for both compounds. PK […]

[5] = tested on: E. coli DH10B; conditions: cited from earlier work; for MIC50 E. coli: E. coli DH10B, n = 3, 0.5 McFarland standard, number in bracket = efficacy rank
[6] = tested on: E. coli total lipid vesicles; experiment: Synthetic phospholipid vesicle membrane binding assay (fluorescence polarisation), E. coli total vesicles; conditions: lipid vesicles added to SSA (0.15 mM); n = 3; error = standard error; SSA alone set to 100 mP
Protocol: as §1, §2

[7] = 10 uM, 120 minutes, n = 2 technical repeats, read-out: Papp (B-A)
[8] = in words, read-out: Papp (B-A) class

Question: Which results are given for `O=C(NCS(=O)(=O)O)Nc1ccccc1-c1nc2ccccc2s1` [SSA 5]?
Answer: increase in FP, PE-PG mix [1]: 36 ± 3 mP; increase in FP, PG [2]: 43 ± 9 mP; increase in FP, PC [3]: 87 ± 4 mP; recovery at 120 min, 10 µM ([4]; read-out: Recovery (A-B)): 79%; recovery at 120 min, 10 µM ([4]; read-out: Recovery (B-A)): 107%; Papp B→A at 120 min, 10 µM [4, 7]: 21 ×10⁻⁶ cm/s; Papp B→A at 120 min, 10 µM [4, 8]: > 10 ×10⁻⁶ cm/s; MIC50 E. coli ([5]; after 900 min): 3.57(5) mM; increase in FP, E. coli total [6]: 32 ± 3 mP

Question: What does the source list for `O=C(NCCCS(=O)(=O)O)Nc1ccc(C(F)(F)F)cc1` [SSA 2]?
Answer: recovery at 120 min, 10 µM ([4]; read-out: Recovery (A-B)): 97%; recovery at 120 min, 10 µM ([4]; read-out: Recovery (B-A)): 102%; Papp B→A at 120 min, 10 µM [4, 7]: 1.7 ×10⁻⁶ cm/s; MIC50 E. coli ([5]; after 900 min): 1.48(3) mM

Question: Which results are given for `O=C(NCS(=O)(=O)O)Nc1ccc(C(F)(F)F)cc1` [SSA 3]?
Answer: initial antimicrobial screening, inhibition of growth, E. coli ([5]; 3.3 mM, after 900 min): ^c (SSA did not pass initial antimicrobial screening, exhibited <10% inhibition of growth at 3.3 mM after 900 min and therefore excluded from further study); initial antimicrobial screening outcome, E. coli ([5]; Table S3, screening at 3.3 mM): Fail

Question: With `Cc1ccc2nc(-c3ccc(NC(=O)NCC(=O)O)cc3)sc2c1` [SSA 11] as the compound, how does the “increase in FP, PE-PG mix” value [1] read?
Answer: Its value is 45 ± 2 mP.

Question: And the “increase in FP, PG” value [2]?
Answer: The value was 209 ± 4 mP.

Question: What about the “increase in FP, PC” value [3] of the same compound?
Answer: Its value is 68 ± 1 mP.

Question: What about the “increase in FP, E. coli total” value [6] of the same compound?
Answer: The value was 66 ± 4 mP.

Question: Which “increase in FP, PE-PG mix” value [1] does the source give for `Cc1ccc2nc(-c3ccc(NC(=S)NCS(=O)(=O)O)cc3)sc2c1` [SSA 12] here?
Answer: Its value is 107 ± 3 mP.

Question: And the “increase in FP, PG” value [2]?
Answer: Its value is 126 ± 5 mP.

Question: And the “increase in FP, PC” value [3]?
Answer: The value was 163 ± 6 mP.

Question: What about the “increase in FP, E. coli total” value [6] of the same compound?
Answer: The value was 199 ± 5 mP.

Question: With `O=C(NCS(=O)(=O)O)Nc1ccc(C(F)(F)F)cc1` [SSA 1] as the compound, how does the recovery at 120 min, 10 µM ([4]; read-out: Recovery (A-B)) read?
Answer: Its recovery at 120 min, 10 µM is 93%.

Question: And the recovery at 120 min, 10 µM ([4]; read-out: Recovery (B-A))?
Answer: Its recovery at 120 min, 10 µM is 101%.

Question: And the Papp B→A at 120 min, 10 µM [4, 7]?
Answer: Its Papp B→A at 120 min, 10 µM is 5.4 ×10⁻⁶ cm/s.

Question: And the “MIC50 E. coli” value ([5]; after 900 min)?
Answer: The value was 3.85(7) mM.

Question: Which “increase in FP, PE-PG mix” value [1] does the source give for `O=C(NCS(=O)(=O)O)Nc1ccc(-c2nc3ccccc3s2)cc1` [SSA 8] here?
Answer: Its value is 32 ± 1 mP.

Question: What about the “increase in FP, PG” value [2] of the same compound?
Answer: The value was 29 ± 1 mP.

Question: And the “increase in FP, PC” value [3]?
Answer: The value was 35 ± 4 mP.

Question: And the “increase in FP, E. coli total” value [6]?
Answer: The value was 24 ± 3 mP.

Question: Which “increase in FP, PE-PG mix” value [1] does the source give for `Cc1ccc2nc(-c3ccc(NC(=O)NCS(=O)(=O)O)cc3)sc2c1` [SSA 6] here?
Answer: Its value is 9 ± 1 mP.

Question: What about the “increase in FP, PG” value [2] of the same compound?
Answer: The value was 40 ± 4 mP.

Question: What about the “increase in FP, PC” value [3] of the same compound?
Answer: The value was 47 ± 8 mP.

Question: And the recovery at 120 min, 10 µM ([4]; read-out: Recovery (A-B))?
Answer: Its recovery at 120 min, 10 µM is 59%.

Question: What about the recovery at 120 min, 10 µM ([4]; read-out: Recovery (B-A)) of the same compound?
Answer: The recovery at 120 min, 10 µM was 86%.

Question: What about the Papp B→A at 120 min, 10 µM [4, 7] of the same compound?
Answer: Its Papp B→A at 120 min, 10 µM is 11 ×10⁻⁶ cm/s.

Question: And the Papp B→A at 120 min, 10 µM [4, 8]?
Answer: Its Papp B→A at 120 min, 10 µM is greater than 10 ×10⁻⁶ cm/s.

Question: And the “MIC50 E. coli” value ([5]; after 900 min)?
Answer: The value was 5.02(8) mM.

Question: What about the “increase in FP, E. coli total” value [6] of the same compound?
Answer: Its value is 20 ± 1 mP.

Question: For `Cc1ccc2nc(-c3ccc(NC(=O)NCCCS(=O)(=O)O)cc3)sc2c1` [SSA 10], which “increase in FP, PE-PG mix” value [1] is on record?
Answer: The value was 21 ± 2 mP.

Question: And the “increase in FP, PG” value [2]?
Answer: The value was 29 ± 2 mP.

Question: And the “increase in FP, PC” value [3]?
Answer: The value was 26 ± 1 mP.

Question: And the recovery at 120 min, 10 µM ([4]; read-out: Recovery (A-B))?
Answer: Its recovery at 120 min, 10 µM is 54%.

Question: And the recovery at 120 min, 10 µM ([4]; read-out: Recovery (B-A))?
Answer: The recovery at 120 min, 10 µM was 95%.

Question: What about the Papp B→A at 120 min, 10 µM [4, 7] of the same compound?
Answer: The Papp B→A at 120 min, 10 µM was 6.7 ×10⁻⁶ cm/s.

Question: What about the “increase in FP, E. coli total” value [6] of the same compound?
Answer: The value was 15 ± 2 mP.

Question: What does the source list for `Cc1ccc2nc(-c3ccc(NC(=O)NCCC(=O)O)cc3)sc2c1` [SSA 9]?
Answer: increase in FP, PE-PG mix [1]: 35 ± 2 mP; increase in FP, PG [2]: 47 ± 1 mP; increase in FP, PC [3]: 35 ± 10 mP; increase in FP, E. coli total [6]: 130 ± 5 mP

Question: What does the source list for `O=C(O)CNC(=O)Nc1ccc(C(F)(F)F)cc1` [SSA 4]?
Answer: recovery at 120 min, 10 µM ([4]; read-out: Recovery (A-B)): 93%; recovery at 120 min, 10 µM ([4]; read-out: Recovery (B-A)): 96%; Papp B→A at 120 min, 10 µM [4, 7]: 2.3 ×10⁻⁶ cm/s; MIC50 E. coli ([5]; after 900 min): 1.25(2) mM
